Article PMC7611678 (ACS catalysis, 2021)
Where two headings read alike, the source gives them in different places. Blank lines part the entries; values can stand above or below the molecule they belong to.

Assays:
HspUPO [1] = conditions: 2 mM H2O2, McIlvaine buffer pH 5, 25 °C; glycosylated enzyme
HspUPO [2] = conditions: 2 mM H2O2, McIlvaine buffer pH 4, 25 °C; glycosylated enzyme
HspUPO [3] = conditions: 2 mM H2O2, McIlvaine buffer pH 7, 25 °C; glycosylated enzyme
HspUPO [4] = conditions: 2 mM H2O2, McIlvaine buffer pH 7, 25 °C; glycosylated enzyme; remark: listed apart in the source
HspUPO [5] = conditions: 2 mM H2O2, McIlvaine buffer pH 7, 25 °C; glycosylated enzyme; remark: listed apart in the source

Compound: COc1ccc(CO)cc1OC [2a, 3,4-Dimethoxybenzyl alcohol]
Km (HspUPO [2]): 758 ± 100 µM

Compound: c1ccc2[nH]ccc2c1 [6a, Indole]
Km (HspUPO [4]): 54 ± 8.16 µM

Compound: OCc1ccccc1 [Benzyl alcohol]
Km (HspUPO [5]): 680 ± 0.14 µM

The next lines start with the values.

Km (HspUPO [1]): 57.5 ± 5 µM
Compound: COc1cccc(OC)c1O [2,6-Dimethoxyphenol]

Km (HspUPO [3]): 18 ± 3.42 µM
Compound: O=[N+]([O-])c1ccc2c(c1)OCO2 [5-Nitro-1,3-benzodioxole]
